Fold increase in Dox EC50 and EC50 data for 47 compounds are collected here from PubChem BioAssay AID844 (SRMLSC, 2007).

Activity calls are given as the source filed them. No rule for the calls is given here.

The test system of the experiment is MRP1 cells, doxorubicin viability shift, 10 uM compound. Put plainly: doxorubicin EC50 increase in MRP-1 cells, dose response, cell-based, doxorubicin EC50 shift (AID 844). Conditions: for EC50: measured here: doxorubicin EC50 with compound.

In the case of `Cc1ccc(/C=N/NC(=O)CSCc2ccc(Cl)cc2)cc1`, the fold increase in Dox EC50 was 1.19 (inactive) and the EC50 is 6.44 µM.

On to `CC(C)(C)c1ccc(-c2nc(-c3ccncc3)no2)cc1`, for which the fold increase in Dox EC50 is 0.77 (inactive) and the EC50 is 4.15 µM.

Take `Oc1c(C(c2cccs2)N2CCN(c3ccccc3)CC2)sc2ncnn12` (centres undefined): the fold increase in Dox EC50 was 0.93 (inactive) and the EC50 is 5.02 µM.

As to `CC(=O)NN1C(=O)/C(=C\c2ccc(C)cc2)SC1=S`, the fold increase in Dox EC50 was 1.47 (inactive) and the EC50 worked out at 7.96 µM.

Regarding `N#Cc1c(-c2ccccc2)nc(SCC(=O)N(c2ccccc2)c2ccccc2)[nH]c1=O`, the fold increase in Dox EC50 was 1.08 (inactive) and the EC50 amounted to 5.86 µM.

`Cc1ccc2nc(/N=C(\N)NC(=O)N3c4ccccc4Sc4ccccc43)nc(C)c2c1`: the fold increase in Dox EC50 is 1.94 and the EC50 stood at 10.5 µM.

Take `O=C(Nc1nc(-c2ccc(Oc3ccccc3)cc2)cs1)C1=COCCO1`: the fold increase in Dox EC50 is 0.84 (inactive) and the EC50 amounted to 4.54 µM.

On to `CCOc1ccccc1Nc1ncnc2c1cnn2-c1ccccc1`, for which the fold increase in Dox EC50 was 0.57 (inactive) and the EC50 was determined as 3.08 µM.

For the compound `COc1ccc(NC(=O)c2oc3ccccc3c2NC(=O)C(C)(C)C)cc1`, the fold increase in Dox EC50 was 0.63 (inactive) and the EC50 came to 3.41 µM.

`Cc1cc(C)nc(N/N=C/c2cccc3ccccc23)n1`: the fold increase in Dox EC50 was 1 (inactive) and the EC50 came to 5.39 µM.

For the compound `O=C(OC1CCc2ccccc2C1=O)c1ccccc1O` (centres undefined), the fold increase in Dox EC50 is 0.69 (inactive) and the EC50 turned out to be 3.73 µM.

Consider `O=C(CN1C(=O)S/C(=C\c2ccc(Cl)cc2)C1=O)NNC(=O)c1ccccc1O`, for which the fold increase in Dox EC50 was 1.05 (inactive) and the EC50 was found to be 5.65 µM.

For `N=C(N)SCc1ccccn1`, the fold increase in Dox EC50 was 0.54 (inactive) and the EC50 came out at 2.9 µM.

Consider `CCOC(=O)c1ccc(NC(=O)C2CCN(C(=O)c3ccc(OC)c(OC)c3)CC2)cc1`, for which the fold increase in Dox EC50 is 0.99 (inactive) and the EC50 was 5.35 µM.

Regarding `COc1ccccc1-c1nnc(SC2CCc3ccccc3NC2=O)s1` (centres undefined), the fold increase in Dox EC50 is 0.55 (inactive) and the EC50 stood at 2.98 µM.

Take `COc1ccccc1NC(=O)c1sc2nc(-c3ccco3)ccc2c1N`: the fold increase in Dox EC50 is 0.85 (inactive) and the EC50 is 4.61 µM.

Consider `COc1ccc(-c2nnc(SC(C)C(=O)Nc3cccc(Cl)c3)o2)cc1` (centres undefined), for which the fold increase in Dox EC50 was 0.74 (inactive) and the EC50 turned out to be 4 µM.

On to `CC(=O)N1CCN=C1SCc1ccc(Br)cc1`, for which the fold increase in Dox EC50 was 0.97 (inactive) and the EC50 is 5.26 µM.

As to `COc1ccc(-n2c(SCC(=O)Nc3ccccc3)nc3c(c2=O)SCC3)cc1`, the fold increase in Dox EC50 is 0.22 (inactive) and the EC50 came to 1.18 µM.

Consider `C=CCNC(=S)NNC(=O)COc1ccc(Br)cc1`, for which the fold increase in Dox EC50 was 0.71 (inactive) and the EC50 was 3.82 µM.

Regarding `CCc1ccc(-c2nc(-c3ccncc3)no2)cc1`, the fold increase in Dox EC50 was 0.89 (inactive) and the EC50 stood at 4.82 µM.

Take `O=C(NC(=S)NC(=O)c1ccccc1F)c1ccccc1F`: the fold increase in Dox EC50 was 1.44 (inactive) and the EC50 amounted to 7.79 µM.

In the case of `O=C1c2cccc3cccc(c23)C(=O)N1c1ccncc1`, the fold increase in Dox EC50 was 1.13 (inactive) and the EC50 is 6.09 µM.

As to `O=C(COc1ccc(Br)cc1)c1ccc2c(c1)CCCC2`, the fold increase in Dox EC50 was 1.17 (inactive) and the EC50 turned out to be 6.29 µM.

For `O=C(CC1SC(=O)N(Cc2ccc(Cl)cc2)C1=O)Nc1nccs1` (centres undefined), the fold increase in Dox EC50 was 1.75 and the EC50 amounted to 9.46 µM.

Regarding `Cc1ccc(CN2C(=O)NC(=O)C3(Cc4c(nc5ccccn5c4=O)N4CCCCCC43)C2=O)cc1` (centres undefined), the fold increase in Dox EC50 is 1.02 (inactive) and the 50% effective concentration (EC50) stood at 5.51 µM.

Turning to `O=C(CSc1ncn[nH]1)N1N=C2/C(=C/c3ccco3)CCCC2C1c1ccco1` (centres undefined), the fold increase in Dox EC50 was 0.4 (inactive) and the EC50 was determined as 2.17 µM.

As to `Cc1ccc(Cl)cc1N1CCN(C(=O)c2cc3c(=O)n(C)c4ccccc4c3n2C)CC1`, the fold increase in Dox EC50 is 0.19 (inactive) and the EC50 came out at 1 µM.

As for `CCC(Sc1nc2ccccc2s1)C(=O)Nc1nnc(C)s1` (centres undefined), the fold increase in Dox EC50 is 1.04 (inactive) and the EC50 came to 5.61 µM.

As to `c1coc(C2Nc3cccc4cccc(c34)N2)c1`, the fold increase in Dox EC50 is 0.21 (inactive) and the EC50 was 1.13 µM.

Turning to `CCn1c(C)c(C)c2cc(C(=O)Nc3cccc(Cl)c3)ccc21`, the fold increase in Dox EC50 was 0.43 (inactive) and the EC50 was found to be 2.33 µM.

`Cc1nc(N2CCN(Cc3ccccc3)CC2)nc2c1C(=O)CC(c1ccco1)C2` (centres undefined): the fold increase in Dox EC50 was 0.75 (inactive) and the concentration giving a half-maximal response (EC50) worked out at 4.04 µM.

In the case of `Cc1cccc(N2CCN(C(=O)Cc3ccc(Br)cc3)CC2)c1C`, the fold increase in Dox EC50 was 0.95 (inactive) and the EC50 is 5.11 µM.

`COc1ccccc1NC(=O)CSC1=NCCN1`: the fold increase in Dox EC50 was 0.68 (inactive) and the EC50 was determined as 3.7 µM.

In the case of `Cc1cccc(OCCNC(=O)c2ccc(Oc3ccc(C(F)(F)F)cc3[N+](=O)[O-])cc2)c1`, the fold increase in Dox EC50 is 1.12 (inactive) and the EC50 turned out to be 6.05 µM.

As to `CCCOC(=S)NC(=O)c1sc2ccccc2c1Cl`, the fold increase in Dox EC50 was 1.25 (inactive) and the EC50 stood at 6.75 µM.

On to `CCCCCCC1CC(CSc2ncn[nH]2)OC1=O` (centres undefined), for which the fold increase in Dox EC50 was 1.14 (inactive) and the EC50 was 6.14 µM.

For `CCN(C(=O)c1cc2cc3ccc(C)cc3nc2o1)c1ccc(OC)cc1`, the fold increase in Dox EC50 is 0.64 (inactive) and the EC50 came to 3.46 µM.

Consider `CC(=O)N1CCN=C1SCc1ccc(C)cc1`, for which the fold increase in Dox EC50 was 0.87 (inactive) and the EC50 is 4.67 µM.

`Cc1ccc(NC(=O)CCNC(=O)c2ccc(Cl)cc2)cc1F`: the fold increase in Dox EC50 is 1.15 (inactive) and the EC50 was determined as 6.19 µM.

On to `CCOC(=O)c1c(-c2ccc(C)o2)csc1NC(=O)CSc1ncn[nH]1`, for which the fold increase in Dox EC50 was 0.51 (inactive) and the EC50 is 2.74 µM.

In the case of `COc1cccc(C2CC(c3ccc(Cl)cc3)Nc3nc(N)nn32)c1` (centres undefined), the fold increase in Dox EC50 is 0.88 (inactive) and the EC50 worked out at 4.77 µM.

`CCCCCCCOc1ccc(-c2ccc(C#N)cn2)cc1`: the fold increase in Dox EC50 was 0.67 (inactive) and the EC50 worked out at 3.63 µM.

`N#Cc1nc(COc2cccc(Cl)c2)oc1N1CCCC1`: the fold increase in Dox EC50 was 0.93 (inactive) and the EC50 amounted to 5.04 µM.

`N=C(N)SCc1cccc2ccccc12`: the fold increase in Dox EC50 was 0.35 (inactive) and the EC50 turned out to be 1.9 µM.

Turning to `O=C(COC(=O)c1c(Cl)cccc1Cl)Nc1cc(Cl)ccc1Oc1ccccc1`, the fold increase in Dox EC50 is 0.36 (inactive) and the EC50 was 1.97 µM.

Take `Cc1cccc(NC(=O)CSc2nc(-c3ccccc3)c(C#N)c(=O)[nH]2)c1C`: the fold increase in Dox EC50 is 1.24 (inactive) and the EC50 was determined as 6.71 µM.
